Measurements as given in ChEMBL document CHEMBL4622882, “Discovery of a novel indole pharmacophore for the irreversible inhibition of myeloperoxidase (MPO)” (Bioorg Med Chem, 2020).
pIC50: −log10 of the molar value. ≈ marks a conversion by molar mass, not a printed value. Calls of active or inactive are those of the source. No cut-off for these calls is given here.

How the values were obtained:
[1] = target: T1, Thyroid peroxidase (Homo sapiens, UniProt P07202); assay: Inhibition of thyroid peroxidase (unknown origin)
T1 sequence (P07202 whole entry): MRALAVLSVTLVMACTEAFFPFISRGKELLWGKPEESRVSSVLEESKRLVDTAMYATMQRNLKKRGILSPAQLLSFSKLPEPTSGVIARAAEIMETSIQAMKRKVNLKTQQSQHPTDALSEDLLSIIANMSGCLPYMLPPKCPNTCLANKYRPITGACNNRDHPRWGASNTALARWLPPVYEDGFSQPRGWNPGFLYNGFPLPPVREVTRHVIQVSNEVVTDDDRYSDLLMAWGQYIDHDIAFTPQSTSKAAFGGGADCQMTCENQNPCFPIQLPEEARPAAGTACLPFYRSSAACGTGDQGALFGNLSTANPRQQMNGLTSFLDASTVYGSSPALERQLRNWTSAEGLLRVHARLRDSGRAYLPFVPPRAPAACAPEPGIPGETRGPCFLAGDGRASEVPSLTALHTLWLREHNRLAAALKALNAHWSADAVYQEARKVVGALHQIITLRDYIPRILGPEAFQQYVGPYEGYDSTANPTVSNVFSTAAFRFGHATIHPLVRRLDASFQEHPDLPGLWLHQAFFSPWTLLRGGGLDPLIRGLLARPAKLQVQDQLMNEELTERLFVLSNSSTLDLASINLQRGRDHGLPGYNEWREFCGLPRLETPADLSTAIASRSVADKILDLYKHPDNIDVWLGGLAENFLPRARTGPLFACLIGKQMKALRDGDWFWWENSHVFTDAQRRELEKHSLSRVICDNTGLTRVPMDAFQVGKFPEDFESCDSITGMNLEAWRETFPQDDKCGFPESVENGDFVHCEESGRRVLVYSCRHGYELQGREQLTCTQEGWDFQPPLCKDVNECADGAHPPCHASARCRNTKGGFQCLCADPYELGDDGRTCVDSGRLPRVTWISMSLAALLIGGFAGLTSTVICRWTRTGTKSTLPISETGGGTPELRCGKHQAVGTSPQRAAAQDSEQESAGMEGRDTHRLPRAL

[2] = target: T2, Myeloperoxidase (Homo sapiens) (UniProt P05164); assay: Inhibition of myeloperoxidase (unknown origin) assessed as partition ratio by Amplex red based fluorescence assay
T2 sequence (whole entry): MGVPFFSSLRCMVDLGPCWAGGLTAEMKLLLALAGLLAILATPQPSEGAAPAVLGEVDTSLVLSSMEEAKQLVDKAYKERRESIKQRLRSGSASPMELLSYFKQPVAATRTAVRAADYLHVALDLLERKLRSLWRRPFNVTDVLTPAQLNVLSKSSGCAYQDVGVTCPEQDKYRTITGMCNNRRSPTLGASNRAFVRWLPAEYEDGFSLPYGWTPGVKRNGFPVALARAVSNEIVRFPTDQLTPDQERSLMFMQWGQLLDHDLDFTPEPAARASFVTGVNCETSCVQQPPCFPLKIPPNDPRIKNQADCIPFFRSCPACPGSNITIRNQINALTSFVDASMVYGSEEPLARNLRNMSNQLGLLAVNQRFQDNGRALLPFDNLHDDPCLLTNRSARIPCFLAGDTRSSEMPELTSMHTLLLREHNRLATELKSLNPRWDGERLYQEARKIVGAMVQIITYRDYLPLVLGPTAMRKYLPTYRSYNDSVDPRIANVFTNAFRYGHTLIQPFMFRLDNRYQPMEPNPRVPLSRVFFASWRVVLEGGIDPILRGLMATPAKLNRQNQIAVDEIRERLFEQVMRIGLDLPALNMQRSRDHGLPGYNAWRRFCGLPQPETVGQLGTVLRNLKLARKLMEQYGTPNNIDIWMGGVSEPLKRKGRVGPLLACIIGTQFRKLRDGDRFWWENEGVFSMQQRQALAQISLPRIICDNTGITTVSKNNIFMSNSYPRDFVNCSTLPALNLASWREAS

[3] = target: T3, Myeloperoxidase (Homo sapiens, UniProt P05164); assay: Inhibition of myeloperoxidase (unknown origin)
T3 sequence (P05164 whole entry): T2 sequence (whole entry)

[4] = target: Voltage-gated inwardly rectifying potassium channel KCNH2 (Homo sapiens, UniProt Q12809); assay: Inhibition of human ERG
Chain of Voltage-gated inwardly rectifying potassium channel KCNH2 (Q12809 whole entry): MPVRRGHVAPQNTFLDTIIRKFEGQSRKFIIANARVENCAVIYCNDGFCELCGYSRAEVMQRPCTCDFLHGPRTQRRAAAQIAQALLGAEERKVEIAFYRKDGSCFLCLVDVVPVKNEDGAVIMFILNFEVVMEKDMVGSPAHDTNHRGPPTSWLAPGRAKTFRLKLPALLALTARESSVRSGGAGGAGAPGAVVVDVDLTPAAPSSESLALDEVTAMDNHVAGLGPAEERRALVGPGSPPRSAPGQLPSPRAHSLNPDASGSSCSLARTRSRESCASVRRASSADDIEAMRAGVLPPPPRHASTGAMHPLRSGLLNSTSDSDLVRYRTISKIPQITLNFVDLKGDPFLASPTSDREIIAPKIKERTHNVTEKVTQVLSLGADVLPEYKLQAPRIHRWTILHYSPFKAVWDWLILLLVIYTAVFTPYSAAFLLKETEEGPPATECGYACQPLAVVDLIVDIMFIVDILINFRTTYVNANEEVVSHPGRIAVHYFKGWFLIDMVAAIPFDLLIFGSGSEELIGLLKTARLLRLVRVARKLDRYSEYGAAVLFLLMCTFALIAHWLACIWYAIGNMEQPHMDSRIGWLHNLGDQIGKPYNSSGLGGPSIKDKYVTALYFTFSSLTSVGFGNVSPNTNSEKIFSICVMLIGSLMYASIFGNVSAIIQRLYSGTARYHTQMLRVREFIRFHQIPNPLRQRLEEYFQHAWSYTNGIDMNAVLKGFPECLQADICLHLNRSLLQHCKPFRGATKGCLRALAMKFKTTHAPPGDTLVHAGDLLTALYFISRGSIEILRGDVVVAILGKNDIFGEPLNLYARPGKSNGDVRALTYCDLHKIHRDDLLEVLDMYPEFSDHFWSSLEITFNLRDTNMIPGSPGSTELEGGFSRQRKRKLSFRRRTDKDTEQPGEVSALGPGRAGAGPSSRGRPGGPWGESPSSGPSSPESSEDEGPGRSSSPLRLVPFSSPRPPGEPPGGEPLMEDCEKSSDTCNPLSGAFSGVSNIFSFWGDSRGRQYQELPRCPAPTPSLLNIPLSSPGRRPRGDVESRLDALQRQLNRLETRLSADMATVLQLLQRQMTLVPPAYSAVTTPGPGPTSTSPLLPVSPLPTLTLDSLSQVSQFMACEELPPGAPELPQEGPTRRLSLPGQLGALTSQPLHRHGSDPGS

[5] = Solubility of the compound at pH 6.8; format: physicochemical; conditions: buffer
[6] = target: Cytochrome P450 2D6 (Homo sapiens, UniProt P10635); assay: Inhibition of CYP2D6 (unknown origin); format: ADME
Chain of Cytochrome P450 2D6 (P10635 whole entry): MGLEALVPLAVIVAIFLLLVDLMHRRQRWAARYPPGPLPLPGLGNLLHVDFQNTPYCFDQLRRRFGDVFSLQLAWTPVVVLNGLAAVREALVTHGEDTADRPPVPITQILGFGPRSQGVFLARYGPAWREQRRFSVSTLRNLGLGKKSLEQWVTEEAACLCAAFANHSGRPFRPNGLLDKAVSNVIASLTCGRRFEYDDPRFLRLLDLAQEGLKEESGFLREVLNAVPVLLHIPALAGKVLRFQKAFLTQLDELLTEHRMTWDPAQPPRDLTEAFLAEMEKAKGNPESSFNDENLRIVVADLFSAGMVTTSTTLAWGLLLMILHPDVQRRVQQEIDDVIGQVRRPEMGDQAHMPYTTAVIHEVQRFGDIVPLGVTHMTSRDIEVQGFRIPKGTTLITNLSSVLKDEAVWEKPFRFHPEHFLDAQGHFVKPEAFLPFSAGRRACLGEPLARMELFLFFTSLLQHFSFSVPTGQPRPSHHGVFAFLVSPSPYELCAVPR

[7] = target: Cytochrome P450 3A4 (Homo sapiens, UniProt P08684); assay: Inhibition of CYP3A4 (unknown origin); format: ADME
Chain of Cytochrome P450 3A4 (P08684 whole entry): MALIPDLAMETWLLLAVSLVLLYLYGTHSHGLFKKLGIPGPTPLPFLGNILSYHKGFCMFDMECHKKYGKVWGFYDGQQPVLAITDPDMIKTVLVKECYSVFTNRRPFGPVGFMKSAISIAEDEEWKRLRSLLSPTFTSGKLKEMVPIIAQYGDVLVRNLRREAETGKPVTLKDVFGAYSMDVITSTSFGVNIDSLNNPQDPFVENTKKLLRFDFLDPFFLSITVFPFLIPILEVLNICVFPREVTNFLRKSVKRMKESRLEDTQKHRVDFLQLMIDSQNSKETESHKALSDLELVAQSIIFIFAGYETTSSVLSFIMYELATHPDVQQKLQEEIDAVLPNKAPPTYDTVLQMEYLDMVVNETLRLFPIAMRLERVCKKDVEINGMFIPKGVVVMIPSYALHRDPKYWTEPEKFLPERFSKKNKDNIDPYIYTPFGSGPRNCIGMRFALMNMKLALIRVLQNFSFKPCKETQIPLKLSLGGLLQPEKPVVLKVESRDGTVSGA

[8] = target: T3, Myeloperoxidase; assay: Inhibition of human plasma myeloperoxidase
[9] = target: T2, Myeloperoxidase (Homo sapiens); assay: Inhibition of myeloperoxidase (unknown origin) assessed as ratio of Kinact to Ki
[10] = Plasma clearance in mouse at 1 mg/kg, iv; format: ADME, organism-based
[11] = Elimination half life in mouse at 0.5 mg/kg, iv; format: ADME, organism-based; conditions: in vivo, read-out: beta t1/2 (converted)
[12] = AUCinfinity in mouse at 10 mg/kg, po; format: ADME, organism-based; design: dose 10 mg/kg, route oral, time infinity; conditions: in vivo
[13] = Plasma protein binding in human; format: ADME, cell-free; conditions: read-out: PPB (converted)
[14] = Plasma protein binding in mouse at 0.5 mg/kg, iv or 10 mg/kg, po; format: ADME, organism-based; conditions: read-out: PPB (converted)
[15] = Cmax in mouse at 10 mg/kg, po; format: ADME, organism-based; design: dose 10 mg/kg, route oral; conditions: in vivo
[16] = Volume of distribution at steady state in mouse at 0.5 mg/kg, iv; format: ADME, organism-based; conditions: in vivo, read-out: Vdss
[17] = Oral bioavailability in mouse at 10 mg/kg; format: ADME, organism-based; conditions: in vivo
[18] = target: T4, Thyroid peroxidase (Homo sapiens) (UniProt P07202); assay: Irreversible inhibition of thyroid peroxidase (unknown origin) at 1000 fold dilution
T4 sequence (whole entry): T1 sequence (P07202 whole entry)

[19] = tested on: Armoracia rusticana; assay: Irreversible inhibition of horseradish peroxidase at 1000 fold dilution
[20] = target: T2, Myeloperoxidase (Homo sapiens); assay: Irreversible inhibition of myeloperoxidase (unknown origin) at 1000 fold dilution
[21] = target: T2, Myeloperoxidase (Homo sapiens); assay: Irreversible inhibition of human myeloperoxidase assessed as residual activity using H2O2 as substrate at 200 fold dilution and measured after 72 hrs by dialysis method
[22] = tested on: Mus musculus; assay: Antiinflammatory activity against mouse model of thioglycolate/zymosan A induced peritonitis assessed as decrease in myeloperoxidase activity at 90 mg/kg, po pretreated for 4 hrs followed by zymosan A stimulation by ELISA; format: functional; design: scale not given: the % may be the effect or the level left
[23] = Unbound Cmax in mouse at 10 mg/kg, po; format: ADME, organism-based; conditions: in vivo
[24] = Volume of distribution at steady state in mouse at 1 mg/kg, iv; format: ADME, organism-based; conditions: in vivo, read-out: Vdss
[25] = Elimination half life in mouse at 1 mg/kg, iv; format: ADME, organism-based; conditions: in vivo, read-out: beta t1/2 (converted)
[26] = target: T2, Myeloperoxidase (Homo sapiens); assay: Irreversible inhibition of human myeloperoxidase using H2O2 as substrate at 200 fold dilution and measured after 72 hrs by dialysis method
[27] = Plasma protein binding in mouse at 1mg/kg, iv or 10 mg/kg, po; format: ADME, organism-based; conditions: read-out: PPB (converted)

| Compound | pIC50 [1] | Ratio [2] | pIC50 [3] | solubility [5] [µM] | IC [6] [µM] | IC [7] [µM] | pIC50 [8] | Ratio [9] [M⁻¹ s⁻¹] | pIC50 [4] | further results |
| --- | --- | --- | --- | --- | --- | --- | --- | --- | --- | --- |
| NC[C@H]1C[C@H](n2cc(-c3ccc4cc[nH]c4c3)c(C(F)(F)F)n2)C1 | < 4.52 | 6.7 | 6.77 |  |  |  |  |  |  |  |
| O=C(O)CCn1cc(-c2ccc3cc[nH]c3c2)c(C(F)(F)F)n1 |  | > 200 | 5.28 |  |  |  |  |  |  |  |
| FC(F)(F)c1nn(-c2ccc(Cc3nc[nH]n3)cc2)cc1-c1ccc2cc[nH]c2c1 | 5.23 | 12 | 6.60 | 11 (≈ 4.49 µg/mL) | 0.5 | 6.9 | 4.64 | 106000 | < 4.52 |  |
| N[C@@H]1CC[C@@H](n2cc(-c3ccc4cc[nH]c4c3)c(C(F)(F)F)n2)C1 | < 4.52 | 3.1 | 7.15 | 587 (≈ 196 µg/mL) | > 50 | 34 | 6.77 | 230000 | 4.77 | clearance [10]: 16.1 mL/min/kg; half-life [11]: 4.5 h; AUC(0-inf) [12]: 22.9 µM·h; fraction unbound [13]: 0.034; fraction unbound [14]: 0.027; Cmax [15]: 1990 nM; Vd [16]: 2.1 L/kg; bioavailability [17]: 40% |
| NC(=O)Cn1cc(-c2ccc3cc[nH]c3c2)c(C(F)(F)F)n1 | < 4.52 | > 200 | 5.70 |  |  |  |  |  |  |  |
| NCCCCn1cc(-c2ccc3cc[nH]c3c2)c(C(F)(F)F)n1 | < 4.52 | 42 | 6.48 | 73 (≈ 23.5 µg/mL) | 43 | > 50 | 6.05 | 61000 | 5.72 |  |
| Nc1ncnc2c1c(-c1ccc3cc[nH]c3c1)cn2-c1ccc(OCCNCCO)cc1 | 4.52 | 141 | 6.66 | 46 (≈ 19.7 µg/mL) | > 50 | > 50 |  | 23000 | 5.55 | inhibition [18]: inactive; inhibition [19]: inactive; inhibition [20]: Active; Activity [21]: > 95% |

Further compounds by rising pIC50 [3], results first:

| pIC50 [1] | Ratio [2] | pIC50 [3] | solubility [5] [µM] | IC [6] [µM] | IC [7] [µM] | pIC50 [8] | Ratio [9] [M⁻¹ s⁻¹] | Compound | pIC50 [4] | further results |
| --- | --- | --- | --- | --- | --- | --- | --- | --- | --- | --- |
| < 4.52 | > 200 | 5.38 |  |  |  |  |  | NC(=O)CCn1cc(-c2ccc3cc[nH]c3c2)c(C(F)(F)F)n1 |  |  |
| < 4.52 | 17 | 6.38 | 21 (≈ 8.91 µg/mL) | 21 | 17 | 4.74 | 122000 | N[C@@H](c1ccc(-n2cc(-c3ccc4cc[nH]c4c3)c(C(F)(F)F)n2)cc1)C(F)(F)F | < 4.52 |  |
| 5.28 | 3.7 | 6.92 | 21 (≈ 8.42 µg/mL) | 21 | 17 | 5.59 | 210000 | CN(C)Cc1ccc(-n2cc(-c3ccc4cc[nH]c4c3)c3c(Cl)ccnc32)cc1 | 5.77 | Activity [22]: 50%; fCmax [23]: 2 nM; clearance [10]: 64.7 mL/min/kg; Vd [24]: 9.8 L/kg; AUC(0-inf) [12]: 2.49 µM·h; half-life [25]: 2.6 h; Cmax [15]: 502 nM; inhibition [26]: Active; fraction unbound [27]: 0.004; bioavailability [17]: 61% |
| < 4.52 | 0.4 | 7.52 | 62 (≈ 22.1 µg/mL) | 1.4 | 3.8 | 6.44 | 430000 | NCc1ccc(-n2cc(-c3ccc4cc[nH]c4c3)c(C(F)(F)F)n2)cc1 | 5.40 |  |
